Assay results from article PMC1950558 (Nucleic Acids Research, 2007).
Read-outs that look alike come from different tables or passages of the source.

How the values were obtained:
[1] = tested on: Nc1ccn(C2OC(COP(=O)(O)O)C(O)C2O)c(=O)n1; test: purified protein, by the assay type; conditions: other: hAK2, 37°C, 1 mM ATP; – = Non detectable; 37.0 °C
[2] = tested on: Nc1ncnc2c1ncn2[C@@H]1C[C@@H](O)[C@H](COP(=O)(O)O)O1; test: purified protein, by the assay type; conditions: other: hAK2; – = Non detectable
[3] = target: T1, human AMP kinase 1 (hAK1, cytosolic adenylate kinase) (Homo sapiens, UniProt P00568); test: coupled spectrophotometric NMP kinase assay, hAK1; assay type: biochemical; conditions: for phosphorylation (in words): hAK1; for Km: hAK1, 37°C, 1 mM ATP, – = Non detectable
T1 sequence (P00568 1-194): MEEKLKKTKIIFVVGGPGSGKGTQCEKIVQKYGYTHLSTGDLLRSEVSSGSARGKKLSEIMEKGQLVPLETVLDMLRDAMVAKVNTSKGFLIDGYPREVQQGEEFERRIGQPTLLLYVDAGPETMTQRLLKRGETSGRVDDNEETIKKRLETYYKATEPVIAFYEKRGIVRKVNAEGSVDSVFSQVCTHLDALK

[4] = target: T2, human UMP-CMP kinase (hUCK) (Homo sapiens, UniProt P30085); test: coupled spectrophotometric NMP kinase assay, hUCK; assay type: biochemical; conditions: for Km: 37°C, 1 mM ATP; for Relative Vmax: relative to kcat of D-CMP (100 = kcat 130 s^−1)
T2 sequence (P30085 1-196): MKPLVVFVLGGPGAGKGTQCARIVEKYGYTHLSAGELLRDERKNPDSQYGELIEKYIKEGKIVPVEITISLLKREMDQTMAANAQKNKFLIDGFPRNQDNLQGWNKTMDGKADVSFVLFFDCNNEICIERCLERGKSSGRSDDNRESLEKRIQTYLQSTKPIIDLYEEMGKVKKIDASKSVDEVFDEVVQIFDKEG

[5] = target: human AMP kinase 2 (hAK2, mitochondrial adenylate kinase) (Homo sapiens, UniProt P54819); test: coupled spectrophotometric NMP kinase assay, hAK2; conditions: for phosphorylation (in words): hAK2; for Km: hAK2, 37°C, 1 mM ATP, – = Non detectable
[6] = target: T3, human dTMP kinase (hTMPK) (Homo sapiens, UniProt P23919); test: coupled spectrophotometric NMP kinase assay, hTMPK; assay type: biochemical
T3 sequence (P23919 1-212): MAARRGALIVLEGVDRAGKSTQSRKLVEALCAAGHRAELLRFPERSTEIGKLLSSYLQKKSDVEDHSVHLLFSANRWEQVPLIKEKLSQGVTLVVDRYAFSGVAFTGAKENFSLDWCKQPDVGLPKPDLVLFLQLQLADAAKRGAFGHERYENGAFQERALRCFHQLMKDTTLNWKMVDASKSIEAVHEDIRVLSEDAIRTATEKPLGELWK

hTMPK = target: T4, hTMPK (Homo sapiens, UniProt P23919); test: fluorescence competition assay with MABA-dTDP; assay type: binding
T4 sequence (P23919 1-212): T3 sequence (P23919 1-212)

[7] = target: T2, human UMP-CMP kinase (hUCK); conditions: cited from earlier work
phosphoglycerate kinase = conditions: conversion of L-dTDP into L-dTTP; cited from earlier work
[8] = tested on: chronic B hepatitis virus load; conditions: woodchuck, in vivo; less efficiently than L-dC or L-dT; cited from earlier work
hTK2 = conditions: first phosphorylation of L-dT by hTK2; cited from earlier work
hdCK = conditions: first phosphorylation of L-dT by hdCK; cited from earlier work
[9] = 2 mM ATP and 2 mM Mg^2+ (Figure 2)

Molecule: human AMP kinase 2 (hAK2, mitochondrial adenylate kinase) (Homo sapiens)
- Km [1]: 6000 ± 1000 µM
- kcat/Km [2]: 70 M⁻¹ s⁻¹

Molecule: Nc1ccn([C@H]2C[C@H](O)[C@@H](COP(=O)(O)O)O2)c(=O)n1 [D-dCMP]
- phosphorylation (in words) [3]: not substrates
- Km [4]: 1000 ± 100 µM
- Relative Vmax [4]: 61 ± 4%
- phosphorylation (in words) [5]: not substrates

Molecule: [N-]=[N+]=N[C@@H]1[C@H](O)[C@@H](COP(=O)(O)O)O[C@H]1n1ccc(=O)[nH]c1=O [N3-D-dUMP]
- phosphorylation (in words) [3]: did not significantly phosphorylate
- substrate inhibition at high concentration (in words) [4]: did not give rise to substrate inhibition
- Km [4]: 900 ± 200 µM
- Relative Vmax [4]: 89 ± 6%
- phosphorylation (in words) [5]: did not significantly phosphorylate
- phosphorylation (in words) [6]: did not significantly phosphorylate

Molecule: O=c1ccn([C@H]2C[C@H](O)[C@@H](COP(=O)(O)O)O2)c(=O)[nH]1 [D-dUMP]
- phosphorylation (in words) [3]: not substrates
- Km [4]: 1300 ± 300 µM
- Relative Vmax [4]: 5.1 ± 0.5%
- phosphorylation (in words) [5]: not substrates
- Km [6, 9]: 170 ± 10 µM
- kcat [6, 9]: 4.8 ± 0.6 s⁻¹
- Kd (hTMPK; read-out: dissociation constant KD, calculated from IC50 with Equation (1)): 150 µM

Molecule: Nc1ccn([C@@H]2CS[C@H](COP(=O)(O)O)O2)c(=O)n1 [L-3TCMP]
- Km ([7]; for comparison): 150 ± 20 µM
- Relative Vmax ([7]; relative to D-CMP): 27%

Molecule: Nc1ncnc2c1ncn2[C@@H]1O[C@H](COP(=O)(O)O)[C@@H](O)[C@H]1O [D-AMP]
- Km [3]: 140 ± 20 µM
- Km [5]: 80 ± 20 µM

Molecule: O=c1ccn([C@@H]2O[C@H](COP(=O)(O)O)[C@@H](O)[C@H]2O)c(=O)[nH]1 [D-UMP]
- Km [3]: 6000 ± 2000 µM
- Km [4]: 50 ± 10 µM
- Relative Vmax [4]: 100%

Molecule: Cc1cn(C2CC(O)C(COP(=O)(O)OP(=O)(O)O)O2)c(=O)[nH]c1=O [L-dTDP]
- catalytic efficiency (phosphoglycerate kinase): 500 M⁻¹ s⁻¹

Molecule: Nc1ncnc2c1ncn2[C@H]1C[C@H](O)[C@@H](COP(=O)(O)O)O1 [D-dAMP]
- Km [3]: 1500 ± 300 µM
- Km [5]: 210 ± 50 µM

Molecule: Nc1ncnc2c1ncn2[C@@H]1C[C@@H](O)[C@H](CO)O1 [L-dA]
- effect on virus load (in words) [8]: reduced the virus load

Molecule: Cc1cn([C@@H]2C[C@@H](O)[C@H](CO)O2)c(=O)[nH]c1=O [L-dT, β-L-thymidine]
- catalytic efficiency (hTK2): 1e+07 M⁻¹ s⁻¹
- catalytic efficiency (hdCK): 16000 M⁻¹ s⁻¹
- Kd (hTMPK): 450 µM
